Consider eight compounds from patent US11993604B2, “Substituted pyrazolo[4,3-H]quinazolines as protein kinase inhibitors” (SHENGKE PHARMACEUTICALS (JIANGSU) LTD., priority 2017, dated 2024).

One assay has as its target CDK6/cyclin D1 (Homo sapiens, UniProt Q00534). The experiment in a line: Biochemical kinase inhibition test, CDK6/cyclin D1 (similar method). The conditions noted are these: for IC50: three-fold serial dilution from 10 μM, 10 μM ATP, read-out: CDK6/D1 (nM), enzyme inhibitory activity IC50; for selectivity for CDK6/cyclin D1 relative to CDK4/cyclin D1 (enzyme inhibitory activity): CDK6/cyclin D1 versus CDK4/cyclin D1. The procedure:
Potency determination of biochemical kinase inhibition test. Kinase activity test and IC50 determination. Firstly, 10 ng of recombinant CDK4/Cyclin D1 (Life Technologies PV4204) was diluted in kinase buffer (20 mM Tris pH 7.5, 10 mM MgCl2, 0.01% NP-40, 2 mM DTT), and was incubated with inhibitors at the indicated concentration at room temperature for 30 minutes. The kinase reaction was initiated by adding […] (1.5 μM) of recombinant retinoblastoma protein, 5 μM ATP and 10μ Ci γ-32P-ATP. The reaction was incubated at 30° C. for 20 minutes, and was terminated by adding 2× Laemmli sample buffer, heated at 95° C. for three minutes, and the resulting solution was dissolved with 12% acrylamide SDS-PAGE and autoradiographed. A densitometer (Bio-Rad) was used to quantify the corresponding phosphorylated substrate protein bands. The resulting density values were plotted as a function of the log drug concentration using Prism 4 Graphpad software. IC50 values were determined by plotting a non-linear regression curve with a variable slope.
The inhibitory activity of the compounds disclosed herein against CDK6/cyclin D1 was tested by a similar method.
The compounds were tested in a three-fold serial dilution from the starting concentration of 10 μM, over 10-fold of IC50. The control compound, staurosporine, was tested in a four-fold serial dilution from the starting concentration of 20 μM, over 10-fold of IC50. These reactions took place in the presence of 10 μM ATP.

The target in assay [1] is T1, recombinant CDK4/Cyclin D1 (Homo sapiens, UniProt P11802).
T1 construct: purchased Life Technologies PV4204
As to the kind of experiment: Biochemical kinase inhibition test, CDK4/Cyclin D1 (32P-ATP, retinoblastoma protein substrate). The conditions noted are these: three-fold serial dilution from 10 μM; 10 μM ATP; read-out: CDK4/D1 (nM), enzyme inhibitory activity IC50.

T1 sequence (P11802 whole entry): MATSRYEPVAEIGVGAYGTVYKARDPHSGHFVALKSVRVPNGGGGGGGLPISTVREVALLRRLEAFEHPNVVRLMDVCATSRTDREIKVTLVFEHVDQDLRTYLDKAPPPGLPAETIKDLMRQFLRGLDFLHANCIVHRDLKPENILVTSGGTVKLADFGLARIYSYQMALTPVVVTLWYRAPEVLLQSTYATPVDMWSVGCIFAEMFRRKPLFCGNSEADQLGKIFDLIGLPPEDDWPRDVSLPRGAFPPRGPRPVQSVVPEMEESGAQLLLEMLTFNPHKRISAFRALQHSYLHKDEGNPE
T1 sequence (P24385 whole entry partner): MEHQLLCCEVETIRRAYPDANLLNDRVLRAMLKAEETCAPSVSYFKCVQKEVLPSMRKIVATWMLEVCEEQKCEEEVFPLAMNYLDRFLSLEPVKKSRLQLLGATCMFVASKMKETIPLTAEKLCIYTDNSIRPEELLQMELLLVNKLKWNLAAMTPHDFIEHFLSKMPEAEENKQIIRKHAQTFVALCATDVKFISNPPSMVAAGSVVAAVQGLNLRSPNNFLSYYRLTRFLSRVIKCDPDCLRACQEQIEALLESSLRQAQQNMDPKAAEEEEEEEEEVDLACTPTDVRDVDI
Sequence of CDK6/cyclin D1 (Q00534 whole entry, species assumed): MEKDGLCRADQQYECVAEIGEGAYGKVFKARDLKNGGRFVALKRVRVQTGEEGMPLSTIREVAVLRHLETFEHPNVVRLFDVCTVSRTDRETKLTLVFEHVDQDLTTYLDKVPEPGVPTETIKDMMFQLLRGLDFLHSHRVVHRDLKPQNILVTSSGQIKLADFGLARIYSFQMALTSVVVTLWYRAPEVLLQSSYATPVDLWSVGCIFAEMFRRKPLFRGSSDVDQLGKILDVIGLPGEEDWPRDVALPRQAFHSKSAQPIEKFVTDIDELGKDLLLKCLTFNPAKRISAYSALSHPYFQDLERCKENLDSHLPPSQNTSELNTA
Sequence of CDK6/cyclin D1 (P24385 whole entry partner, species assumed): as the sequence (P24385 whole entry partner) above

Consider `CC(=O)c1cc2cnc(Nc3ccc(N4CCNCC4)cn3)nc2c2c1cnn2C(C)C` [Compound I-75], for which the IC50 on CDK6/cyclin D1 is below 1 nM; in assay [1] it was 1 to 5 nM.
With `CC(=O)c1cc2cnc(Nc3cc(F)c(N4CCNCC4)cn3)nc2c2c1cnn2C(C)C.Cl` [Compound I-76], on CDK6/cyclin D1, the “selectivity for CDK6/cyclin D1 relative to CDK4/cyclin D1 (enzyme inhibitory activity)” value was “about 2 times” and the IC50 fell in the range of 5 to 10 nM. Further, in assay [1], the IC50 is 10 to 20 nM.
As for `CC(=O)c1cc2cnc(Nc3ccc(N4CCN(C)CC4)cn3)nc2c2c1cnn2C(C)C` [Compound I-77], the IC50 on CDK6/cyclin D1 was below 1 nM; in assay [1] it was 5 to 10 nM.
Consider `CCN1CCN(c2ccc(Nc3ncc4cc(C(C)=O)c5cnn(C(C)C)c5c4n3)nc2)CC1` [Compound I-78], for which the values for the IC50 (at CDK6/cyclin D1; in assay [1]) were below 1 nM and 1 to 5 nM, respectively.
The corresponding values for `CC(=O)c1cc2cnc(Nc3ccc(N4CCOCC4)cn3)nc2c2c1cnn2C(C)C` [Compound I-79] are below 1 nM and 5 to 10 nM.
For `COc1cc(OC)cc(-c2cc3cnc(Nc4ccc(N5CCNCC5)cn4)nc3c3c2cnn3C(C)C)c1.Cl` [Compound I-80], at CDK6/cyclin D1, the “selectivity for CDK6/cyclin D1 relative to CDK4/cyclin D1 (enzyme inhibitory activity)” value is “about 3 times” and the IC50 was 1 to 5 nM. In addition, the IC50 in assay [1] is 5 to 10 nM.
As for `CCN1CCN(c2ccc(Nc3ncc4cc(-c5cc(OC)cc(OC)c5)c5cnn(C(C)C)c5c4n3)nc2)CC1` [Compound I-81], on CDK6/cyclin D1, the “selectivity for CDK6/cyclin D1 relative to CDK4/cyclin D1 (enzyme inhibitory activity)” value is reported as “about 3 times” and the IC50 was in the range of 1 to 5 nM. The IC50 in assay [1] lay in the range of 5 to 10 nM.
As to `COc1cc(OC)cc(-c2cc3cnc(Nc4ccc(N5CCOCC5)cn4)nc3c3c2cnn3C(C)C)c1` [Compound I-82], at CDK6/cyclin D1, the “selectivity for CDK6/cyclin D1 relative to CDK4/cyclin D1 (enzyme inhibitory activity)” value is reported as “about 3 times” and the IC50 was 1 to 5 nM. Moreover, in assay [1], the IC50 fell in the range of 5 to 10 nM.
